# Source: patent US12427179B2, “Compositions and methods for diagnosis and treatment of neurodegenerative diseases” (EPITRACKER, INC., priority 2019, dated 2025)
# Columns and labels:
# [1] = system: LPS: Venular endothelial cells, peripheral blood mononuclear cells (TLR4 ligand); test: BioMAP LPS system; format: cell-based, human
# Method: (§1) Anti-inflammatory phenotypic profiling was conducted across 12 human primary cell-based systems as part of DiscoverX's BioMAP Diversity Plus program. These systems are designed to model complex human tissue and disease biology of the vasculature, skin, lung, and inflammatory tissues. Quantitative measurements of biomarker activities across this broad panel were used to assess each biochemical's anti-inflammatory activity at four concentrations ([…] and 2.2, 6.7 and 20 μM). […] Protein-based biomarkers from activated cell systems were measured and compared with controls. Biomarker activities were annotated when 2 or more consecutive concentrations change in the same directions relative to vehicle controls, were outside of the significance envelope and had at least one concentration with an effect size>20% (log 10 ratio)>0.1.
# (§2) In the first system, human primary peripheral blood mononuclear cells and venular endothelial cells were stimulated with lipopolysaccharide (LPS) and incubated with the test agent, drug control, or vehicle control for 24 hours. In the second system, peripheral blood mononuclear cells and B cells were stimulated with α-IgM and T cell receptor ligands and incubated with the test agent, drug control, or vehicle control for 24 hours. In both systems, a negative, non-stimulated system was also included.
# (§3) The Diversity PLUS panel allows test agent characterization in an unbiased way across a broad set of systems modeling various human disease states. These systems are designed to model complex human tissue and disease biology of the vasculature, skin, lung, and inflammatory tissues. Quantitative measurements of 148 biomarker activities across this broad panel, along with comparative analysis of biological activities from known bioactive agents, were used to predict and compare the efficacy and function of each selected compound at selected concentrations (6.7 and/or 20 μM).
# (§4) BioMAP systems are constructed with one or more primary cell types from healthy human donors, with stimuli (such as cytokines or growth factors) added to capture relevant signaling networks that naturally occur in human tissue or pathological conditions. Vascular biology is modeled in both a Th1 (3C system) and a Th2 (4H system) inflammatory environment, as well as in a Th1 inflammatory state specific to arterial smooth muscle cells (CASM3C system). Additional systems recapitulate aspects of the systemic immune response including monocyte-driven Th1 inflammation (LPS system) or T cell stimulation (SAg system), chronic Th1 inflammation driven by macrophage activation (lMphg system) and the T cell-dependent activation of B cells that occurs in germinal centers (BT system). The BE3C system (Th1) and the BF4T system (Th2) represent airway inflammation of the lung, while the MyoF system models myofibroblast-lung tissue remodeling. Lastly, skin biology is addressed in the KF3CT system modeling Th1 cutaneous inflammation and the HDF3CGF system modeling wound healing.
# (§5) Each test agent generates a signature BioMAP profile that is created from the changes in protein biomarker readouts within individual system environments. Biomarker readouts (7-17 per system) are selected for therapeutic and biological relevance, are predictive for disease outcomes or specific drug effects and are validated using agents with known mechanism of action (MoA). Each readout is measured quantitatively by immune-based methods that detect protein (e.g., ELISA) or functional assays that measure proliferation and viability. BioMAP readouts are diverse and include cell surface receptors, cytokines, chemokines, matrix molecules and enzymes. In total, the Diversity PLUS panel contains 148 biomarker readouts that capture biological changes that occur within the physiological context of the particular BioMAP system. […]
# [2] = system: human primary cell-based systems; test: BioMAP Diversity PLUS panel, phenotypic profiling; settings: tested at 6.7 and/or 20 μM; 24 to 72 hours
# Method: as §1, with “controls.” for “controls. Biomarker activities were annotated when 2 or more consecutive concentrations change in the same directions relative to vehicle controls, were outside of the significance envelope and had at least one concentration with an effect size>20% (log 10 ratio)>0.1.”
# as §3, §4
# (§6) Each test agent generates a signature BioMAP profile that is created from the changes in protein biomarker readouts within individual system environments. Biomarker readouts (7-17 per system) are selected for therapeutic and biological relevance, are predictive for disease outcomes or specific drug effects and are validated using agents with known mechanism of action (MoA). Each readout is measured quantitatively by immune-based methods that detect protein (e.g., ELISA) or functional assays that measure proliferation and viability. BioMAP readouts are diverse and include cell surface receptors, cytokines, chemokines, matrix molecules and enzymes. In total, the Diversity PLUS panel contains 148 biomarker readouts that capture biological changes that occur within the physiological context of the particular BioMAP system.
# (§7) Activated BioMAP systems were incubated with each compound for 24 to 72 hours. Protein-based biomarkers from activated cell systems were measured and compared with non-treated control systems.
# [3] = system: CASM3C: Coronary artery smooth muscle cells (IL-1β, TNFα, IFNγ); test: BioMAP CASM3C system; format: cell-based, human; settings: at the compound's active concentration
# Text: (§8) The Diversity PLUS panel allows test agent characterization in an unbiased way across a broad set of systems modeling various human disease states. These systems are designed to model complex human tissue and disease biology of the vasculature, skin, lung, and inflammatory tissues.
# as §4
# as §6, with “enzymes.” for “enzymes. In total, the Diversity PLUS panel contains 148 biomarker readouts that capture biological changes that occur within the physiological context of the particular BioMAP system.”
# as §7
# [4] = system: BE3C: Bronchial epithelial cells (IL-1β, IFNγ, TNFα); test: BioMAP BE3C system; format: cell-based, human; settings: at the compound's active concentration
# Text: as §8, §4
# as §6, with “enzymes.” for “enzymes. In total, the Diversity PLUS panel contains 148 biomarker readouts that capture biological changes that occur within the physiological context of the particular BioMAP system.”
# as §7
# [5] = system: 3C system (Th1 vascular biology); test: BioMAP 3C system; format: cell-based, human; settings: at the compound's active concentration
# Text: as §5, with “The Diversity PLUS panel allows test agent characterization in an unbiased way across a broad set of systems modeling various human disease states. These systems are designed to model complex human tissue and disease biology of the vasculature, skin, lung, and inflammatory tissues. […] BioMAP systems are constructed with one or more primary cell types from healthy human donors, with stimuli (such as cytokines or growth factors) added to capture relevant signaling networks that naturally occur in human tissue or pathological conditions. […] Each test” for “Each test”
# [6] = system: /Mphg: Macrophages, venular endothelial cells (TLR2 ligand); test: BioMAP /Mphg system; format: cell-based, human; settings: at the compound's active concentration
# Text: as §3, §4, §5, §7
# [7] = system: BT: Peripheral blood mononuclear cells, B cells (α-IgM, TCR ligands); test: BioMAP BT system; format: cell-based, human
# Method: as §1, §2, §3, §4, §5
# [8] = system: 4H: Venular endothelial cells (IL-4, histamine); test: BioMAP 4H system; format: cell-based, human; settings: at the compound's active concentration
# Text: as §3
# BioMAP systems are constructed with one or more primary cell types from healthy human donors, with stimuli (such as cytokines or growth factors) added to capture relevant signaling networks that naturally occur in human tissue or pathological conditions. Vascular biology is modeled in both a Th1 (3C system) and a Th2 (4H system) inflammatory environment, as well as in a Th1 inflammatory state specific to arterial smooth muscle cells (CASM3C system). […]
# as §5, §7
# [9] = system: HDF3CGF: Dermal fibroblasts; test: BioMAP HDF3CGF system; format: cell-based, human; settings: at the compound's active concentration
# Text: as §3, §4
# as §6, with “system. Specific BioMAP activities have been correlated to in vivo biology, and multiparameter BioMAP profiles have been used to distinguish compounds based on MoA and target selectivity across diverse physiological systems.” for “system.”
# as §7
# [10] = system: SAg: Venular endothelial cells, peripheral blood mononuclear cells (TCR ligands); test: BioMAP SAg system; format: cell-based, human; settings: SAg system; at the compound's active concentration
# Method: as §1
# In this system, human primary peripheral blood mononuclear cells and human umbilical vein endothelial cells were stimulated with T-cell receptor ligands and incubated with the test agent, drug control, or vehicle control for 24 hours. A negative, non-stimulated system was also included. […] This antiproliferative activity was lost at higher concentrations (20 μM). In this system, T cell proliferation is considered a critical event driving an inflammatory response.
# as §3, with “μM). […]” for “μM).”
# as §5
# [11] = at the compound's active concentration
# [12] = BT system, at the compound's active concentration
compound,measurement,setting,value
C[C@H](CCC(=O)O)[C@H]1CC[C@H]2[C@@H]3[C@H](O)C[C@@H]4C[C@H](O)CC[C@]4(C)[C@H]3C[C@H](O)[C@]12C [cholate],"Tissue factor, log10 reduction vs nontreated controls",[1]; [11],−0.13 log10
same,Active concentrations,[2],20 µM
same,"Thrombomodulin, log10 reduction vs nontreated controls",[3]; CASM3C system,−0.12 log10
same,"MMP-1, log10 reduction vs nontreated controls",[4],−0.10 log10
N[C@@H](CCC(=O)N[C@@H](Cc1c[nH]cn1)C(=O)O)C(=O)O [gamma-glutamylhistidine],"CD40, log10 reduction vs nontreated controls",[1]; [11],−0.11 log10
same,"E-selectin, log10 reduction vs nontreated controls",[1]; [11],−0.11 log10
same,"Tissue factor, log10 reduction vs nontreated controls",[5],−0.12 log10
same,"IL-8, log10 reduction vs nontreated controls",[6],−0.15 log10
same,Active concentrations,[2],20 µM
same,"TNF-alpha (sTNF-alpha), log10 reduction vs nontreated controls",[7]; [12],−0.18 log10
same,"Thrombomodulin, log10 reduction vs nontreated controls",[3]; CASM3C system,−0.12 log10
same,"MMP-1, log10 reduction vs nontreated controls",[4],−0.10 log10
"COc1cc(C(O)C(=O)O)ccc1O (centres unmarked) [vanillylmandelate (VMA), vanillylmandelate]","IL-8, log10 reduction vs nontreated controls",[6],−0.18 log10
O=c1[nH]c(=O)c2ncn([C@@H]3O[C@H](CO)[C@@H](O)[C@H]3O)c2[nH]1 [xanthosine],"CD40, log10 reduction vs nontreated controls",[1]; [11],−0.12 log10
same,"Tissue factor, log10 reduction vs nontreated controls",[1]; [11],−0.13 log10
same,"IL-8, log10 reduction vs nontreated controls",[6],−0.13 log10
same,Active concentrations,[2],6.7 to 20 µM
same,"Tissue factor, log10 reduction vs nontreated controls",[3]; CASM3C system (system cell not printed on the line),−0.13 log10
same,"Thrombomodulin, log10 reduction vs nontreated controls",[3]; CASM3C system,−0.11 log10
CC(=O)N[C@H](C(=O)O)[C@@H](C)O [N-acetylthreonine],Active concentrations,[2],20 µM
same,"Secreted IgG, log10 reduction vs nontreated controls",[7]; [12],−0.41 log10
same,"VEGFR2, log10 reduction vs nontreated controls",[8],−0.16 log10
O=C(O)c1cc(O)c2cccc(O)c2n1 [xanthurenate],"Secreted prostaglandin E2 (PGE2), log10 reduction vs nontreated controls",[1]; 20 μM,−0.09 log10
same,"Secreted interleukin 6 (IL-6), log10 reduction vs controls",[7]; BT system (second system),−0.13 log10
same,"TNF-alpha (sTNF-alpha), log10 reduction vs nontreated controls",[7]; [12],−0.19 log10
N=C(N)NCCCC(=O)O [4-guanidinobutanoate],"CXCL10, log10 reduction vs nontreated controls",[9],−0.11 log10
same,"CXCL11, log10 reduction vs nontreated controls",[9],−0.19 log10
same,"Collagen III, log10 reduction vs nontreated controls",[9],−0.30 log10
same,"Fibroblast proliferation, log10 reduction vs nontreated controls",[9],−1.09 log10
same,"TIMP-1, log10 reduction vs nontreated controls",[9],−0.14 log10
same,"VCAM-1, log10 reduction vs nontreated controls",[9],−0.19 log10
same,Active concentrations,[2],6.7 to 20 µM
same,"CD38, log10 reduction vs nontreated controls",[10],−0.10 log10
same,"T cell proliferation, log10 reduction vs nontreated controls",[10],−0.13 log10
same,"Secreted IgG, log10 reduction vs nontreated controls",[7]; [12],−0.49 log10
same,"TNF-alpha (sTNF-alpha), log10 reduction vs nontreated controls",[7]; [12],−0.10 log10
same,"sIL-17A, log10 reduction vs nontreated controls",[7]; [12],−0.17 log10
same,"MCP-1, log10 reduction vs nontreated controls",[8],−0.12 log10
O[C@H]1[C@H](O)[C@@H](O)[C@H](O)[C@@H](O)[C@H]1O [myo-inositol],Active concentrations,[2],6.7 µM
same,"M-CSF, log10 reduction vs nontreated controls",[3]; CASM3C system,−0.10 log10
same,"MMP-1, log10 reduction vs nontreated controls",[4],−0.12 log10
